Target: T1, KDM5A (Homo sapiens, UniProt P29375)
T1 construct: Full length KDM5A enzyme was expressed and purified inhouse; made in house
Assay: KDM5 enzyme assay, KDM5A HTRF (Example 463)
Assay type: biochemical
Settings: compounds of Examples 1-432; read-out: Example 463 Assay KDM5A HTRF IC50
Procedure: Full length KDM5A enzyme was expressed and purified inhouse. Biotin-H3K4me3 peptide was purchased from New England Biolabs. HTRF reagents (containing Eu-labeled H3K4me1-2 antibody, and streptavidin-XL665) were purchased from Cis-Bio International. Plates were read on an Envision multi-label plate reader Perkin Elmer).
The HTRF assay mixture contained 2 nM full length KDM5A enzyme, 100 nM H3K4Me3 peptide substrate, 1 uM 2-OG, 100 uM Fe^2+, 500 uM ascorbate. 50 mM HEPES pH 7.0 buffer, 0.01% Triton-X 100, 2 mM DTT. […] The plates were incubated at room temperature for 60 minutes and then read in the Envision plate reader.

T1 sequence (P29375 whole entry): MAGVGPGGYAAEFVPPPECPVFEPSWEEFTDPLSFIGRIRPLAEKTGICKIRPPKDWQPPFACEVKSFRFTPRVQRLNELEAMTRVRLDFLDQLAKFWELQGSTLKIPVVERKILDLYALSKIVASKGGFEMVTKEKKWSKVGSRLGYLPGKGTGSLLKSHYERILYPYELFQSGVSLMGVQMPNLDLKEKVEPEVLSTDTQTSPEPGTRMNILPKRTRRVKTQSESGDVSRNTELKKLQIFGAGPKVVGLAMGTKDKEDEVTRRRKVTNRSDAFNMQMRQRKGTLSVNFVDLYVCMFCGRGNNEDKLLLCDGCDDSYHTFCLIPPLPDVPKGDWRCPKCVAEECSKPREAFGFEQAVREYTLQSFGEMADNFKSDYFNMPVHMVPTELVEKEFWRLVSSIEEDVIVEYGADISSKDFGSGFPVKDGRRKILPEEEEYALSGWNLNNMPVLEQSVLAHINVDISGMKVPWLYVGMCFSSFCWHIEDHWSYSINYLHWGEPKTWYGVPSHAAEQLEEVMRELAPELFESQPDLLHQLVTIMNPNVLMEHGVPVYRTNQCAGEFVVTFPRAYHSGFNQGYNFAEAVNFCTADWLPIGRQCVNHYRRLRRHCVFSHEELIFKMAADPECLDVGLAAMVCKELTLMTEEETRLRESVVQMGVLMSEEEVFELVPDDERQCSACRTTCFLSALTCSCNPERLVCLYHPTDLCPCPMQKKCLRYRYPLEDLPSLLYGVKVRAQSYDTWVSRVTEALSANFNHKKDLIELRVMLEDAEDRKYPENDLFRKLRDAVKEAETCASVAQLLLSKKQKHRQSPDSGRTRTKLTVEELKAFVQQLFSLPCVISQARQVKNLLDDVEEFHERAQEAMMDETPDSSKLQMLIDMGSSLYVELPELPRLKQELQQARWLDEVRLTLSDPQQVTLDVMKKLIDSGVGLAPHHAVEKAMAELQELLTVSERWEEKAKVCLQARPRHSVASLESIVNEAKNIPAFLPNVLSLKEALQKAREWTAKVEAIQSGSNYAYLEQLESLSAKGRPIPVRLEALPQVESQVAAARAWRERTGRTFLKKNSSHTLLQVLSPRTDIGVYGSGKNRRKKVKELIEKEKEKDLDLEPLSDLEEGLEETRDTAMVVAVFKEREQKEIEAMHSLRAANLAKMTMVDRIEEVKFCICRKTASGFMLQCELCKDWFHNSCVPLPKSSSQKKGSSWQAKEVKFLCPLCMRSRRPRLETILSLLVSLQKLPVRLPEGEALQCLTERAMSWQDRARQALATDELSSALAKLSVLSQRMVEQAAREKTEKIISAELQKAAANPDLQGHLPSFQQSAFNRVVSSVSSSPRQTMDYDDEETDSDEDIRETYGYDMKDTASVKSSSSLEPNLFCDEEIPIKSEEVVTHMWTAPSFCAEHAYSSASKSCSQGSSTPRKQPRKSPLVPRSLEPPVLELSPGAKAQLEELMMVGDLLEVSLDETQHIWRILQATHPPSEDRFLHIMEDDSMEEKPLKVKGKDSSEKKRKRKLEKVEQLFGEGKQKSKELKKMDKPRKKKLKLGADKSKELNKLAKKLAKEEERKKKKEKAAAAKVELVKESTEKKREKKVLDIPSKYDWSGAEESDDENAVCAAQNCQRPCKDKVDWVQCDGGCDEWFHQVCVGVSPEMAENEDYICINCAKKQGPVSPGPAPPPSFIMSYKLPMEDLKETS

Structure (SMILES) | IC50
CC(C)c1c(-c2ccnn2CC2CC2)[nH]c2c(C#N)cnn2c1=O (single isomer, unassigned) [Example 15, 5-(1-(cyclopropylmethyl)-1H-pyrazol-5-yl)-6-isopropyl-7-oxo-4,7-dihydropyrazolo[1,5-a]pyrimidine-3-carbonitrile] | 47 nM
CC(C)c1c(-c2ccn(CC3CC3)n2)[nH]c2c(C#N)cnn2c1=O (single isomer, unassigned) [Example 16, 5-(1-(cyclopropylmethyl)-1H-pyrazol-3-yl)-6-isopropyl-7-oxo-4,7-dihydropyrazolo[1,5-a]pyrimidine-3-carbonitrile] | 11 nM
CC(C)NC(=O)c1ccc(-c2[nH]c3c(C#N)cnn3c(=O)c2C(C)C)cc1 [Compound 345] | 140 nM
CC(C)c1c(-c2ccc(N3CCN(C)CC3)cc2)[nH]c2c(C#N)cnn2c1=O [Compound 346] | 40 nM
CC(C)c1c(-c2cc(Cl)cc(C#N)c2)[nH]c2c(C#N)cnn2c1=O [Compound 347] | 24 nM
CC(C)c1c(-c2cccc(CNS(C)(=O)=O)c2)[nH]c2c(C#N)cnn2c1=O [Compound 348] | 14 nM
CC(C)c1c(-c2cccc(-c3ccn[nH]3)c2)[nH]c2c(C#N)cnn2c1=O [Compound 349] | 14 nM
CC(C)c1c(-c2ccc(S(C)(=O)=O)cc2)[nH]c2c(C#N)cnn2c1=O [Compound 350] | 20 nM
CC(C)c1c(-c2ccc(C(=O)NC3CC3)cc2)[nH]c2c(C#N)cnn2c1=O [Compound 351] | 27 nM
CC(C)c1c(-c2cnn(CCF)c2)[nH]c2c(C#N)cnn2c1=O [Compound 352] | 27 nM
CC(C)c1c(-c2cccc(-c3ccccc3)c2)[nH]c2c(C#N)cnn2c1=O [Compound 353] | 14 nM
CC(C)c1c(-c2ccc(C(F)(F)F)c(C3CC3)c2)[nH]c2c(C#N)cnn2c1=O [Compound 354] | 77 nM
CC(C)c1c(-c2cccc(OCC3CC3)c2)[nH]c2c(C#N)cnn2c1=O [Compound 355] | 40 nM
CC(C)c1c(-c2cccc(OCc3ccccc3)c2)[nH]c2c(C#N)cnn2c1=O [Compound 356] | 44 nM
CC(C)c1c(-c2cccc(CN3CCOCC3)c2)[nH]c2c(C#N)cnn2c1=O [Compound 357] | 22 nM
CC(C)c1c(-c2cccc(COc3ccccc3)c2)[nH]c2c(C#N)cnn2c1=O [Compound 358] | 25 nM
CC(C)c1c(-c2cnn(-c3cccc(F)c3)c2)[nH]c2c(C#N)cnn2c1=O [Compound 359] | 20 nM
CC(C)c1c(/C=C/C2CC2)[nH]c2c(C#N)cnn2c1=O [Compound 360] | 28 nM
CC(C)c1c(-c2ccc(C(F)(F)F)nc2)[nH]c2c(C#N)cnn2c1=O [Compound 361] | 52 nM
CC(C)c1c(-c2cnn(-c3ccc(F)cc3)c2)[nH]c2c(C#N)cnn2c1=O [Compound 362] | 24 nM
Cc1nc(C)c(-c2[nH]c3c(C#N)cnn3c(=O)c2C(C)C)s1 [Compound 363] | 25 nM
CCCn1cc(-c2[nH]c3c(C#N)cnn3c(=O)c2C(C)C)cn1 [Compound 364] | 18 nM
CCCCn1cc(-c2[nH]c3c(C#N)cnn3c(=O)c2C(C)C)cn1 [Compound 365] | 18 nM
CC(C)c1c(-c2cnn(CCNc3ccccc3)c2)[nH]c2c(C#N)cnn2c1=O [Compound 366] | 18 nM
CC(C)c1c(-c2ccc(C(N)=O)cc2)[nH]c2c(C#N)cnn2c1=O [Compound 367] | 25 nM
CNC(=O)c1ccc(-c2[nH]c3c(C#N)cnn3c(=O)c2C(C)C)cc1 [Compound 368] | 75 nM
CNC(=O)c1ccc(-c2[nH]c3c(C#N)cnn3c(=O)c2C(C)C)cc1F [Compound 369] | 85 nM

Structure (SMILES) | IC50
CC(C)c1c(-c2cnn(CCN3CC(F)(F)C3)c2)[nH]c2c(C#N)cnn2c1=O [Compound 370] | 8 nM
CC(C)c1c(-c2cnn(CCN3CCC(F)(F)C3)c2)[nH]c2c(C#N)cnn2c1=O [Compound 371] | 11 nM
CC(C)c1c(-c2cnn(CCNCC(F)(F)F)c2)[nH]c2c(C#N)cnn2c1=O [Compound 372] | 15 nM
C/C=C/c1[nH]c2c(C#N)cnn2c(=O)c1C(C)C [Compound 373] | 24 nM
CC(=O)Nc1cccc(-c2[nH]c3c(C#N)cnn3c(=O)c2C(C)C)c1 [Compound 374] | 38 nM
CC(C)c1c(-c2cccc(NS(C)(=O)=O)c2)[nH]c2c(C#N)cnn2c1=O [Compound 375] | 19 nM
CC(C)c1c(-c2ccc(C(=O)N3CCOCC3)cc2)[nH]c2c(C#N)cnn2c1=O [Compound 376] | 19 nM
CC(=O)N1CCN(c2ccc(-c3[nH]c4c(C#N)cnn4c(=O)c3C(C)C)cc2)CC1 [Compound 377] | 22 nM
CC(C)c1c(-c2cnn(CC(F)F)c2)[nH]c2c(C#N)cnn2c1=O [Compound 378] | 14 nM
CC(C)c1ccc(-c2[nH]c3c(C#N)cnn3c(=O)c2C(C)C)o1 [Compound 379] | 11 nM
CC(C)c1c(-c2cnn(C3CCC(F)(F)C3)c2)[nH]c2c(C#N)cnn2c1=O (centres unmarked) [Compound 380] | 48 nM
CC(C)c1c(-c2cnn([C@H]3CC[C@@H](O)C3)c2)[nH]c2c(C#N)cnn2c1=O [Compound 381] | 30 nM
CC(C)c1c(-c2cnn([C@H]3CC[C@H](O)C3)c2)[nH]c2c(C#N)cnn2c1=O [Compound 382] | 48 nM
CC(C)c1c(-c2cccc(-c3cn[nH]c3)c2)[nH]c2c(C#N)cnn2c1=O [Compound 383] | 31 nM
CC(C)c1c(-c2ccc(Br)o2)[nH]c2c(C#N)cnn2c1=O [Compound 384] | 13 nM
CC(C)c1c(-c2cccc(Nc3ccccc3)c2)[nH]c2c(C#N)cnn2c1=O [Compound 385] | 21 nM
Cc1ncc(-c2[nH]c3c(C#N)cnn3c(=O)c2C(C)C)s1 [Compound 386] | 12 nM
CC(C)c1c(-c2cccc(C#Cc3ccccc3)c2)[nH]c2c(C#N)cnn2c1=O [Compound 387] | 130 nM
CC(C)c1c(-c2cccc(CCc3ccccc3)c2)[nH]c2c(C#N)cnn2c1=O [Compound 388] | 25 nM
CC(C)c1c(-c2cnn(C3CCC(F)C3)c2)[nH]c2c(C#N)cnn2c1=O (centres unmarked) [Compound 389] | 33 nM
COCC(C)(C)n1cc(-c2[nH]c3c(C#N)cnn3c(=O)c2C(C)C)cn1 [Compound 390] | 55 nM
C=CC(=O)N1CC(n2cc(-c3[nH]c4c(C#N)cnn4c(=O)c3C(C)C)cn2)C1 [Compound 391] | 11 nM
CCC(=O)N1CC(n2cc(-c3[nH]c4c(C#N)cnn4c(=O)c3C(C)C)cn2)C1 [Compound 392] | 20 nM
CC(C)c1c(-c2ccc(=O)[nH]c2)[nH]c2c(C#N)cnn2c1=O [Compound 393] | 12 nM
CC(C)c1c(-c2cccc(/C=C/c3ccccc3)c2)[nH]c2c(C#N)cnn2c1=O [Compound 394] | 20 nM
CC(C)c1c(-c2ccc(N3CCNCC3)cc2)[nH]c2c(C#N)cnn2c1=O [Compound 395] | 10 nM
CC(C)c1c(-c2cnn(C(C)(C)CF)c2)[nH]c2c(C#N)cnn2c1=O [Compound 396] | 34 nM

Structure (SMILES) | IC50
CC(C)c1c(-c2c[nH]nc2C(F)(F)F)[nH]c2c(C#N)cnn2c1=O [Compound 397] | 32 nM
Cc1cc(C)cc(-c2[nH]c3c(C#N)cnn3c(=O)c2C(C)C)c1 [Compound 398] | 41 nM
CC(C)c1c(-c2ccc(S(=O)(=O)N3CCOCC3)cc2)[nH]c2c(C#N)cnn2c1=O [Compound 399] | 54 nM
CC(C)c1c(-c2cccc(C(=O)N3CCN(C)CC3)c2)[nH]c2c(C#N)cnn2c1=O [Compound 400] | 35 nM
CC(C)c1c(-c2cccc(C(C)(C)O)c2)[nH]c2c(C#N)cnn2c1=O [Compound 401] | 39 nM
Cc1nn(C(C)C)cc1-c1[nH]c2c(C#N)cnn2c(=O)c1C(C)C [Compound 402] | 58 nM
Cc1c(-c2[nH]c3c(C#N)cnn3c(=O)c2C(C)C)cnn1C(C)C [Compound 403] | 57 nM
C=CC(C)c1c(-c2ccccc2)[nH]c2c(C#N)cnn2c1=O (centres unmarked) [Compound 404] | 18 nM
CC(C)c1c(-c2cc(C3CC3)n[nH]2)[nH]c2c(C#N)cnn2c1=O [Compound 405] | 12 nM
COC(=O)c1cc(-c2[nH]c3c(C#N)cnn3c(=O)c2C(C)C)c[nH]1 [Compound 406] | 15 nM
CC(C)c1c(-c2cc(C3CC3)nn2C(C)C)[nH]c2c(C#N)cnn2c1=O [Compound 407] | 48 nM
CC(C)c1c(-c2cc(C3CC3)n(C(C)C)n2)[nH]c2c(C#N)cnn2c1=O [Compound 408] | 150 nM
COC(=O)c1cc(-c2[nH]c3c(C#N)cnn3c(=O)c2C(C)C)cn1C(C)C [Compound 409] | 44 nM
CC(C)c1c(-c2cc(C(F)(F)F)nn2C)[nH]c2c(C#N)cnn2c1=O [Compound 410] | 39 nM
CC(C)c1c(-c2ccn(C(C)C)n2)[nH]c2c(C#N)cnn2c1=O [Compound 411] | 35 nM
CC(C)c1c(-c2cc(C3CC3)n(C3CCCC3)n2)[nH]c2c(C#N)cnn2c1=O [Compound 412] | 46 nM
CC(C)c1c(-c2cc(C3CC3)nn2C2CCCC2)[nH]c2c(C#N)cnn2c1=O [Compound 413] | 110 nM
CC(C)c1c(-c2ccn(C3CCCC3)n2)[nH]c2c(C#N)cnn2c1=O [Compound 414] | 14 nM
CC(C)c1c(-c2ccnn2C(C)C)[nH]c2c(C#N)cnn2c1=O [Compound 415] | 77 nM
CNC(=O)c1cc(-c2[nH]c3c(C#N)cnn3c(=O)c2C(C)C)cn1C(C)C [Compound 416] | 48 nM
CC(C)c1c(-c2cc(C(=O)N(C)C)n(C(C)C)c2)[nH]c2c(C#N)cnn2c1=O [Compound 417] | 31 nM
CC(C)c1c(-c2ccn(CCC3CC3)n2)[nH]c2c(C#N)cnn2c1=O [Compound 418] | 13 nM
CC(C)c1c(-c2ccnn2CCC2CC2)[nH]c2c(C#N)cnn2c1=O [Compound 419] | 88 nM
CCn1ccc(-c2[nH]c3c(C#N)cnn3c(=O)c2C(C)C)n1 [Compound 420] | 23 nM
CCc1c(-c2cccc(N3CCCC3=O)c2)[nH]c2c(C#N)cnn2c1=O [Compound 421] | 19 nM
CCc1c(-c2cccc(N3CCC(C)(C)C3=O)c2)[nH]c2c(C#N)cnn2c1=O [Compound 422] | 29 nM
